Each structure is given as a SMILES string.

Assay in all cases: Generic kinase assay (33P-ATP, Myelin Basic Protein)
Common to all, as to format: biochemical

One test addresses T1, IKKb (Homo sapiens, UniProt O14920).
T1 sequence (O14920 1-756): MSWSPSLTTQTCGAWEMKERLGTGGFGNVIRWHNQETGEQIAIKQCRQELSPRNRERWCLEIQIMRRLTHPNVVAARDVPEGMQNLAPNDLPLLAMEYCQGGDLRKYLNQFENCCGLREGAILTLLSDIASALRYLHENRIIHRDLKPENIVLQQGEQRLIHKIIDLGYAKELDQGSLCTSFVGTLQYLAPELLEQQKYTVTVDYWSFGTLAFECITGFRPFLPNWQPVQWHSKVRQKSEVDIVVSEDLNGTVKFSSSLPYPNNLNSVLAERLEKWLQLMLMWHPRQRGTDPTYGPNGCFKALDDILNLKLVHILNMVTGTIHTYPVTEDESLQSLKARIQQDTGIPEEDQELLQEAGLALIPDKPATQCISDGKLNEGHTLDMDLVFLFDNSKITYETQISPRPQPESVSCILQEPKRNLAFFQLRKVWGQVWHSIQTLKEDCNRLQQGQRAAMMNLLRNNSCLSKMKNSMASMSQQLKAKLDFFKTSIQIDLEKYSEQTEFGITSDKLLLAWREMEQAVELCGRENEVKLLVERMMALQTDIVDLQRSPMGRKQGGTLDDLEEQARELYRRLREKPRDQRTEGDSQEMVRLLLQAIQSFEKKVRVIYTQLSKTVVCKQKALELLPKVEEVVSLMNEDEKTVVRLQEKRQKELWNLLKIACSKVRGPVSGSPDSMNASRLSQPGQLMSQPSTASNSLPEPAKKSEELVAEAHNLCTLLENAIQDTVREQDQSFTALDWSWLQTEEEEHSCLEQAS
The following applies: class symbol: % inhibition at 10 μM or IC50. The procedure:
(§1) In order to determine the inhibitory effect of the compounds of the subject invention on various target enzymes a generic kinase assay was established.
(§2) Reactions were performed in 96-Well U-bottom microtiter plates (Greiner Bio-One; Frickenhausen/Germany, Cat. No. 650161), hereinafter designated “Assay Plates”. 10 μl of a solution comprising 40 μM Myelin Basic Protein (Invitrogen; Carlsbad, Calif./USA; Cat. No. 13228-010) and 4 μM ATP in three-fold concentrated Reaction Buffer (60 mM Tris-HCl, pH 7.5; 30 mM MgCl2; 3 mM dithiothreitol) were added into each well of the Assay Plate. 10 μl of serial dilutions of the compounds of the subject invention, dissolved in 4% DMSO, were then added into each well, except for Positive Control. Wells (C+ wells) and Negative Control Wells (C− wells). 10 μl of 4% DMSO without compounds were added to C+ and C− wells. 10 μl of a 500 mM solution of EDTA in water was then added to C− wells. Then 10 μl of a solution containing 50 μCi/ml Adenosine 5′-[γ-^33P]triphosphate in water was added to each well. To start the reaction 10 μl of the kinase to be assayed was added to each well. The optimal amount of kinase in the assay was determined to be the amount which yields to a turn-over of about 10% of ATP. Assay Plates were incubated for one hour at room temperature. Then 10 μl of a 500 mM solution of EDTA in water was added to each well except C− wells. Samples were now ready for measurement.
(§3) Measurements were preformed in 96-Well MAPH-Filter Plates (Millipore; Billerica, Mass./United States; Cat. No. MAPHNOB50), hereinafter designated “Measurement Plates”. Measurement Plates were washed with 200 μl of a 0.75% H3PO4 solution per well. The H3PO4 solution was exhausted using a Millipore vacuum station. 60 μl of a 0.75% H3PO4 solution was then added into each well, followed by the transfer of 30 μl of each well from the Assay Plate into the corresponding wells of the Measurement Plate. The Measurement Plate was incubated for 30 minutes at room temperature. Thereafter each well was washed three times with 200 μl of a 0.75% H3PO4 solution using a Millipore vacuum station. 20 μl of scintillation liquid (Supermix Liquid Szintillator; Perkin Elmer, Wellesley. Mass./United States; Cat. No. 1200-439) was then added to each well of the Measurement Plate. The plate was sealed and stored for 30 minutes in the darkness before radioactivity was quantified in a MicroBeta Scintillation Counter (Perkin Elmer, Wellesley. Mass./United States).

The target of a further test is CDK5/p35 (Homo sapiens, UniProt Q00535). The conditions noted are these: class symbol: % inhibition at 10 μM or IC50. How it is done: as §1, §2, §3
Sequence of CDK5/p35 (Q00535 whole entry, species assumed): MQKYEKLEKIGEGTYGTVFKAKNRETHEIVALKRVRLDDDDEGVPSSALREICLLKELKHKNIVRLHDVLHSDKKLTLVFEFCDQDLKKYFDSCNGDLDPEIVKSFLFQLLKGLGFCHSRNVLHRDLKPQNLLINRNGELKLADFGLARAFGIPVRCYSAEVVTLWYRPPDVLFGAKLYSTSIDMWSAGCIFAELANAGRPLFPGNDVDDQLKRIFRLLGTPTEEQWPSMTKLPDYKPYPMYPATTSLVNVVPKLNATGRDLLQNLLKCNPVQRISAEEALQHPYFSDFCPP
Sequence of CDK5/p35 (Q15078 whole entry partner, species assumed): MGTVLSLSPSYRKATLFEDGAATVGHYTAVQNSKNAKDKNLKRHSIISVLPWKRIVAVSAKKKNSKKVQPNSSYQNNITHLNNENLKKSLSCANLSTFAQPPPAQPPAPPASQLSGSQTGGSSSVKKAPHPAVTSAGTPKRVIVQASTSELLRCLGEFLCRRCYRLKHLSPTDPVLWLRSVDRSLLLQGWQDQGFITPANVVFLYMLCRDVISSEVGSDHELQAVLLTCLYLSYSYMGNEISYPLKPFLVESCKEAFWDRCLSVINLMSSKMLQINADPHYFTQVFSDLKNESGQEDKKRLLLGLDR
The target of the next test is CDK1/CyclinB (Homo sapiens, UniProt P06493). The following applies: class symbol: % inhibition at 10 μM or IC50. How it is done: as §1, §2, §3
For a further test, the system named is PDGFR. The conditions noted are these: class symbol: % inhibition at 10 μM or IC50. The procedure:
as §1, §2, §3

A further test deals with RICK (Homo sapiens, UniProt O43353). The following applies: class symbol: % inhibition at 10 μM or IC50. The procedure:
as §1, §2, §3

A further test has as its target UL97 (Human cytomegalovirus, UniProt P16788). The conditions noted are these: class symbol: % inhibition at 10 μM or IC50. How it is done:
as §1, §2, §3

For another test, the target named is cRaf (Homo sapiens, UniProt P04049). The following applies: 1 h; class symbol: % inhibition at 10 μM or IC50; read-out: Inhibitory effect on target cRaf. How it is done:
as §1, §2, §3

Another test deals with ROCK 2 (Homo sapiens, UniProt O75116). The conditions noted are these: 1 h; class symbol: % inhibition at 10 μM or IC50; read-out: Inhibitory effect on target ROCK 2. How it is done:
as §1, §2, §3

A further test has as its target EGFR (Homo sapiens, UniProt P00533). The following applies: class symbol: % inhibition at 10 μM or IC50. How it is done: as §1, §2, §3
The target of a further test is p56Lck (Homo sapiens, UniProt P06239). The conditions noted are these: 1 h; class symbol: % inhibition at 10 μM or IC50; read-out: Inhibitory effect on target p56Lck. How it is done: as §1, §2, §3
The next test addresses c-kit (Homo sapiens, UniProt P10721). The following applies: 1 h; class symbol: % inhibition at 10 μM or IC50; read-out: Inhibitory effect on target c-kit. The procedure:
as §1, §2, §3

The target in a further test is Abl (Homo sapiens, UniProt P00519). The conditions noted are these: 1 h; class symbol: % inhibition at 10 μM or IC50; read-out: Inhibitory effect on target Abl. The procedure:
as §1, §2, §3

A further test addresses c-Src (Homo sapiens, UniProt P12931). The conditions noted are these: class symbol: % inhibition at 10 μM or IC50. How it is done: as §1, §2, §3
In the next test the target is CDK2/CyclinA (Homo sapiens, UniProt P24941). The conditions noted are these: class symbol: % inhibition at 10 μM or IC50. The procedure: as §1, §2, §3

Sequence of c-kit (P10721 26-976): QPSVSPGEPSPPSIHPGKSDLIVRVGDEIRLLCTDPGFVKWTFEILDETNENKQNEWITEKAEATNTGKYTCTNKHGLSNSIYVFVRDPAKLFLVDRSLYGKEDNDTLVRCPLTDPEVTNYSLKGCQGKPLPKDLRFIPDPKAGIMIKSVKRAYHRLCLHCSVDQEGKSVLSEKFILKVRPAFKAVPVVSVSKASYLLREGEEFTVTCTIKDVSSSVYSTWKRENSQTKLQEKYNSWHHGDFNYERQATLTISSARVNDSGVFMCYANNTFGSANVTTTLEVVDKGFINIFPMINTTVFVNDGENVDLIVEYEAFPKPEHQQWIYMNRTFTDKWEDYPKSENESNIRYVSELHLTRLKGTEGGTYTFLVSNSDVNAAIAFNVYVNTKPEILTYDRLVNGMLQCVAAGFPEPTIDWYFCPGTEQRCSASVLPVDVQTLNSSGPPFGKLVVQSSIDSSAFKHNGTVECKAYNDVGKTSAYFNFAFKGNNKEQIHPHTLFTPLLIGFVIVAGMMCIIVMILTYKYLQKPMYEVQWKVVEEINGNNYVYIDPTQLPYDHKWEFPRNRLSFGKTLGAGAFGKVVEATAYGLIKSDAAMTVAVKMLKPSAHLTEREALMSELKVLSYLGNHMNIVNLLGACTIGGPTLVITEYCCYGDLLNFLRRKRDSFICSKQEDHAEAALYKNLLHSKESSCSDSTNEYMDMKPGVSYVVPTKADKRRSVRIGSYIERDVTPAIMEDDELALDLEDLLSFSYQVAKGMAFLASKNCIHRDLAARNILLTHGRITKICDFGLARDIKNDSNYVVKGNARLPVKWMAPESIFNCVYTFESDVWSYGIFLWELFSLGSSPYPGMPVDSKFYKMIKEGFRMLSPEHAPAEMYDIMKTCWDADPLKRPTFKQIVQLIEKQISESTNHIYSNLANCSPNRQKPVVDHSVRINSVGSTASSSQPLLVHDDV
Sequence of Abl (P00519 whole entry, species assumed): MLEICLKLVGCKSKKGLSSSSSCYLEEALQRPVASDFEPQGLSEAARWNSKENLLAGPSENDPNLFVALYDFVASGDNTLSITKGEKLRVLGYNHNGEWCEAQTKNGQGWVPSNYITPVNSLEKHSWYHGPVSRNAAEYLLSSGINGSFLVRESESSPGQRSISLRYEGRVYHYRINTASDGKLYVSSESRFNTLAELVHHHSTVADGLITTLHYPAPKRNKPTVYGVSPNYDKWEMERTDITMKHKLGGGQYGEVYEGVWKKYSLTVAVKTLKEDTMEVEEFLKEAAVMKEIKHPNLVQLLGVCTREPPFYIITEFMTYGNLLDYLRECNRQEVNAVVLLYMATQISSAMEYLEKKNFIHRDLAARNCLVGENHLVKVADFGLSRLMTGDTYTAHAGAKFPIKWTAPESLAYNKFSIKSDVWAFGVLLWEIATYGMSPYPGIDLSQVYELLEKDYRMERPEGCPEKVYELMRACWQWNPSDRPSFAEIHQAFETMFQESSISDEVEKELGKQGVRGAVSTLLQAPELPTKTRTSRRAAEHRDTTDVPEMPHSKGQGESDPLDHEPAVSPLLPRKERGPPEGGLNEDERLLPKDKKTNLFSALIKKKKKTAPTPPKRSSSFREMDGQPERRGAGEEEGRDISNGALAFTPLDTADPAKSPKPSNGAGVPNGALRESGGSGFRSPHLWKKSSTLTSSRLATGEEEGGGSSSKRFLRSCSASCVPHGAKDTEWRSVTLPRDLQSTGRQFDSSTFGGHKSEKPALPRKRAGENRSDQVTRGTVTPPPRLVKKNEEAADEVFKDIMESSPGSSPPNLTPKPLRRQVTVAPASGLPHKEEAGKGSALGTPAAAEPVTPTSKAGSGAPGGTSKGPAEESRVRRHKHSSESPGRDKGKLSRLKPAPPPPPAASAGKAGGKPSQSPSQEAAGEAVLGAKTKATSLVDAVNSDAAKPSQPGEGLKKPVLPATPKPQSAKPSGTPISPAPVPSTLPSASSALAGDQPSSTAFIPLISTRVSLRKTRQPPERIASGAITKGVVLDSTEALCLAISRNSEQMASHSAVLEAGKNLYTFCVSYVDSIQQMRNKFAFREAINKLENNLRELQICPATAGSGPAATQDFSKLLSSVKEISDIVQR
Sequence of c-Src (P12931 whole entry, species assumed): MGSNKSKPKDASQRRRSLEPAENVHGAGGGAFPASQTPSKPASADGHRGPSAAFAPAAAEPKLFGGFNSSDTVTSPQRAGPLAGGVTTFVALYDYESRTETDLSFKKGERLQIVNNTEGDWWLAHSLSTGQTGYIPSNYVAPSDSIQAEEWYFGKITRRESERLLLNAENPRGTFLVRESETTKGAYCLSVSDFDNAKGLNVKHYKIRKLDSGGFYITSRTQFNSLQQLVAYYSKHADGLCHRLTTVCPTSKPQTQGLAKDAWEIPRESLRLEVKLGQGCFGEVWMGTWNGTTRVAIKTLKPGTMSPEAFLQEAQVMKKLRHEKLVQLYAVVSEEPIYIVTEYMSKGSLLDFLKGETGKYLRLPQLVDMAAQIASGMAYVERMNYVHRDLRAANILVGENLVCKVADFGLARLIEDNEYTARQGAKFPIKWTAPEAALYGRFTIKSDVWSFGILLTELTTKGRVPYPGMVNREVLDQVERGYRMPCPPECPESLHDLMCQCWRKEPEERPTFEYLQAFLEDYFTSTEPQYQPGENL
Sequence of ROCK 2 (O75116 whole entry, species assumed): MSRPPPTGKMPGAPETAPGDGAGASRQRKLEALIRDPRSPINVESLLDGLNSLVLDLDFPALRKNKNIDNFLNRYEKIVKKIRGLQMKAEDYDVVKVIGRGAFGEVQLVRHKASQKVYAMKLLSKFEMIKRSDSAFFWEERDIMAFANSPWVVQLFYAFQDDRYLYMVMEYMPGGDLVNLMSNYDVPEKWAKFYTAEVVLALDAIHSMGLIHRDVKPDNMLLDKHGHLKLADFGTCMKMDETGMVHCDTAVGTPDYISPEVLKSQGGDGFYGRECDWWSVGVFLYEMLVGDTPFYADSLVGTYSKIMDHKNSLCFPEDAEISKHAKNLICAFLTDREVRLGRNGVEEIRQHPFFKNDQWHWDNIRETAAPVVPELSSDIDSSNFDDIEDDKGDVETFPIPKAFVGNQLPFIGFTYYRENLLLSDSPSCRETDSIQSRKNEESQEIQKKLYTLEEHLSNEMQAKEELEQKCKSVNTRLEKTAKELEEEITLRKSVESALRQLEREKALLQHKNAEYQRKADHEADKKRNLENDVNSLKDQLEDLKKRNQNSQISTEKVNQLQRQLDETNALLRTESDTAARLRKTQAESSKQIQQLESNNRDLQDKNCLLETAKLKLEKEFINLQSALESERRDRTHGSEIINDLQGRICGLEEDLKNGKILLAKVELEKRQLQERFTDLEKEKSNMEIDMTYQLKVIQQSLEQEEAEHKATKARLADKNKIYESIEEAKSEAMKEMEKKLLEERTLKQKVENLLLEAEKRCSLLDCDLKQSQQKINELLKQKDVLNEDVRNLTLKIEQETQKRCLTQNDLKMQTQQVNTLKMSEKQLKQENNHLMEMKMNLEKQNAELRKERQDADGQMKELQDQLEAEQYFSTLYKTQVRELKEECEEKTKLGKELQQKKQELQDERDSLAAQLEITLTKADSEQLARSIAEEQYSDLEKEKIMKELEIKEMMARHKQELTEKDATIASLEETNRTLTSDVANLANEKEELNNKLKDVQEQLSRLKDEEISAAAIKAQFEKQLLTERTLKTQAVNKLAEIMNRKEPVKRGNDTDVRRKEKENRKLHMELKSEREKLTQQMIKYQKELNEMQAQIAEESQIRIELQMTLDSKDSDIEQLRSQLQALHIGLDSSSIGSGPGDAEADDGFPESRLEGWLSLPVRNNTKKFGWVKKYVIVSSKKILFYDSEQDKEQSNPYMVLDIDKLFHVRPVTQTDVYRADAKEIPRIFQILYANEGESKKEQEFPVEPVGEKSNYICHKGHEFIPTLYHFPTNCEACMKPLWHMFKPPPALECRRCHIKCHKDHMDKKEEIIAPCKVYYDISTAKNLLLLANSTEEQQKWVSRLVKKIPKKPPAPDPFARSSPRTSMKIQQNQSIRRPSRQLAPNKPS

As for `CC(=O)Nc1cccc(-c2cncc(Nc3ccc(C#N)cc3)c2)c1` [Compound 205, N-{3-[5-(4-Cyano-phenylamino)-pyridin-3-yl]-phenyl}-acetamide], the “Inhibitory effect on target IKKb” value at IKKb was “A (A: 50-90% inhibition at 10 μM enzyme concentration)”. Also, on CDK5/p35, the “Inhibitory effect on target CDK5/p35” value was “A (A: 50-90% inhibition at 10 μM enzyme concentration)”. Moreover, the “Inhibitory effect on target CDK1/CyclinB” value on CDK1/CyclinB is listed as “A (A: 50-90% inhibition at 10 μM enzyme concentration)”. The “Inhibitory effect on target PDGFR” value in the test on PDGFR was “A (A: 50-90% inhibition at 10 μM enzyme concentration)”. Also, the “Inhibitory effect on target RICK” value at RICK is recorded as “C (C: IC50 measured: <1 μM)”.
As for `Nc1cccc(CNc2cncc(-c3cccc(O)c3)c2)c1` [Compound 245, 3-[5-(3-Amino-benzylamino)-pyridin-3-yl]-phenol], the “Inhibitory effect on target UL97” value on UL97 is “C (C: IC50 measured: <1 μM)”. On RICK, the “Inhibitory effect on target RICK” value is listed as “C (C: IC50 measured: <1 μM)”. For the same compound, the inhibition at 10 µM on cRaf is 50 to 90%.
For `CN(Cc1cccc(O)c1)c1cncc(-c2cccc(O)c2)c1` [Compound 241, 3-{5-[(3-Hydroxy-benzyl)-methyl-amino]-pyridin-3-yl}-phenol], the “Inhibitory effect on target UL97” value at UL97 is “C (C: IC50 measured: <1 μM)”. Further, the inhibition at 10 µM at ROCK 2 fell in the range of 50 to 90%. In addition, the “Inhibitory effect on target RICK” value on RICK is listed as “C (C: IC50 measured: <1 μM)”.
`Oc1cccc(CNc2cncc(-c3cccc(O)c3F)c2)c1` [Compound 231, 2-Fluoro-3-[5-(3-hydroxy-benzylamino)-pyridin-3-yl]-phenol]: at EGFR, the “Inhibitory effect on target EGFR” value is on record as “A (A: 50-90% inhibition at 10 μM enzyme concentration)”. Also, on CDK5/p35, the “Inhibitory effect on target CDK5/p35” value is “A (A: 50-90% inhibition at 10 μM enzyme concentration)”. Further, the inhibition at 10 µM on p56Lck, on c-kit, at Abl and on cRaf was 50 to 90% each time. For the same compound, at CDK1/CyclinB, the “Inhibitory effect on target CDK1/CyclinB” value was “A (A: 50-90% inhibition at 10 μM enzyme concentration)”. In addition, in the test with PDGFR, the “Inhibitory effect on target PDGFR” value is on record as “A (A: 50-90% inhibition at 10 μM enzyme concentration)”. For the same compound, the “Inhibitory effect on target RICK” value at RICK is on record as “C (C: IC50 measured: <1 μM)”. The “Inhibitory effect on target c-Src” value on c-Src is given as “B (B: >90% inhibition at 10 μM enzyme concentration)”.
For the compound `Oc1cccc(CNc2cncc(Cc3cccc(O)c3)c2)c1` [Compound 272, (3-hydroxy-benzyl)-[5-(3-hydroxy-benzyl)-pyridin-3-yl]-amine], the “Inhibitory effect on target CDK5/p35” value on CDK5/p35 is “A (A: 50-90% inhibition at 10 μM enzyme concentration)”. At ROCK 2, the inhibition at 10 µM lay within 50 to 90%. For the same compound, on CDK2/CyclinA, the “Inhibitory effect on target CDK2/CyclinA” value is recorded as “B (B: >90% inhibition at 10 μM enzyme concentration)”.
In the case of `CC(=O)Nc1cccc(-c2cncc(Nc3ccccc3F)c2)c1` [Compound 237, N-{3-[5-(2-Fluoro-phenylamino)-pyridin-3-yl]-phenyl}-acetamide], at IKKb, the “Inhibitory effect on target IKKb” value is listed as “A (A: 50-90% inhibition at 10 μM enzyme concentration)”. Also, the “Inhibitory effect on target EGFR” value on EGFR was “A (A: 50-90% inhibition at 10 μM enzyme concentration)”. The “Inhibitory effect on target CDK1/CyclinB” value at CDK1/CyclinB is “A (A: 50-90% inhibition at 10 μM enzyme concentration)”. Moreover, the “Inhibitory effect on target PDGFR” value in the test on PDGFR is on record as “A (A: 50-90% inhibition at 10 μM enzyme concentration)”. Moreover, the “Inhibitory effect on target RICK” value on RICK was “C (C: IC50 measured: <1 μM)”.
With `COc1cccc(-c2cncc(NCc3cccc(O)c3)c2)c1` [Compound 239, 3-{[5-(3-Methoxy-phenyl)-pyridin-3-ylamino]-methyl}-phenol], the “Inhibitory effect on target EGFR” value on EGFR is “A (A: 50-90% inhibition at 10 μM enzyme concentration)”. Also, the “Inhibitory effect on target CDK5/p35” value at CDK5/p35 is “A (A: 50-90% inhibition at 10 μM enzyme concentration)”. Besides, the inhibition at 10 µM at p56Lck, on ROCK 2, at Abl and at cRaf was 50 to 90% each time. For the same compound, the “Inhibitory effect on target CDK2/CyclinA” value on CDK2/CyclinA is on record as “C (C: IC50 measured: <1 μM)”. The “Inhibitory effect on target CDK1/CyclinB” value on CDK1/CyclinB is reported as “B (B: >90% inhibition at 10 μM enzyme concentration)”. Further, the “Inhibitory effect on target PDGFR” value in the test on PDGFR is reported as “B (B: >90% inhibition at 10 μM enzyme concentration)”. In addition, the “Inhibitory effect on target RICK” value at RICK is given as “C (C: IC50 measured: <1 μM)”. The “Inhibitory effect on target c-Src” value on c-Src is “B (B: >90% inhibition at 10 μM enzyme concentration)”.
Turning to `O=C(Nc1cncc(-c2cccc(O)c2)c1)c1cccc(O)c1` [Compound 234, 3-Hydroxy-N-[5-(3-hydroxy-phenyl)-pyridin-3-yl]-benzamide], on IKKb, the “Inhibitory effect on target IKKb” value is listed as “A (A: 50-90% inhibition at 10 μM enzyme concentration)”. Further, the “Inhibitory effect on target EGFR” value at EGFR was “B (B: >90% inhibition at 10 μM enzyme concentration)”. Besides, the inhibition at 10 µM on p56Lck is > 90%; on c-kit, 50 to 90%; on Abl it was 50 to 90%; on cRaf, 50 to 90%. In the test on PDGFR, the “Inhibitory effect on target PDGFR” value is recorded as “B (B: >90% inhibition at 10 μM enzyme concentration)”. Besides, on RICK, the “Inhibitory effect on target RICK” value was “C (C: IC50 measured: <1 μM)”. For the same compound, the “Inhibitory effect on target c-Src” value on c-Src is recorded as “B (B: >90% inhibition at 10 μM enzyme concentration)”.
Consider `COc1cccc(-c2cncc(NCc3cccc(O)c3)c2)c1F` [Compound 236, 3-{[5-(2-Fluoro-3-methoxy-phenyl)-pyridin-3-ylamino]-methyl}-phenol], for which the “Inhibitory effect on target EGFR” value on EGFR is “A (A: 50-90% inhibition at 10 μM enzyme concentration)”. Further, the inhibition at 10 µM on p56Lck is 50 to 90%; on c-kit it was > 90%; at Abl, 50 to 90%; at cRaf, 50 to 90%. Also, at CDK1/CyclinB, the “Inhibitory effect on target CDK1/CyclinB” value is “A (A: 50-90% inhibition at 10 μM enzyme concentration)”. Besides, in the test on PDGFR, the “Inhibitory effect on target PDGFR” value was “A (A: 50-90% inhibition at 10 μM enzyme concentration)”. Further, the “Inhibitory effect on target RICK” value on RICK was “C (C: IC50 measured: <1 μM)”. In addition, the “Inhibitory effect on target c-Src” value on c-Src is recorded as “A (A: 50-90% inhibition at 10 μM enzyme concentration)”.
